From ChEMBL document CHEMBL4400547 (J Med Chem, 2019)
pEC50, pIC50: −log10 of the molar value. ≈ marks a conversion by molar mass, not a printed value.

Columns and labels:
[1] = biological target: T1, Serine/threonine-protein kinase/endoribonuclease IRE1 (Homo sapiens, UniProt O75460); assay: Inhibition of dephosphorylated IRE1alpha (G547 to L977 residues) (unknown origin) autophosphorylation at S724 after 25 mins in presence of ATP by dissociation-enhanced lanthanide fluorescence immunoassay
[2] = biological target: T1, Serine/threonine-protein kinase/endoribonuclease IRE1; assay: Displacement for LanthaScreen tracer from dephosphorylated IRE1alpha (G547 to L977 residues) (unknown origin) ATP binding site […] after 60 mins by FRET assay
[3] = biological target: T1, Serine/threonine-protein kinase/endoribonuclease IRE1; assay: Inhibition of dephosphorylated IRE1alpha (G547 to L977 residues) (unknown origin) -dependent cleavage of FAM-labeled stem-loop RNA containing the XBP1 cleavage site preincubated for 30 mins followed by RNA XBP1 substrate addition and measured after 15 mins by FRET assay
[4] = biological target: T1, Serine/threonine-protein kinase/endoribonuclease IRE1; assay: Inhibition of tunicamycin-induced IRE1alpha (unknown origin) expressed in HEK293 cells assessed as reduction in IRE1alpha-dependent splicing of XBP1u-luciferase mRNA by luciferase reporter gene assay; type: cell-based
[5] = biological target: Cyclin-dependent kinase 17 (Homo sapiens) (UniProt Q00537); assay: Inhibition of recombinant human GST-tagged PCTK2 expressed in baculovirus expression system at 1 uM by kinomescan assay relative to control
Cyclin-dependent kinase 17 (Homo sapiens), sequence (Q00537 whole entry, looked up, the tested form may be a part): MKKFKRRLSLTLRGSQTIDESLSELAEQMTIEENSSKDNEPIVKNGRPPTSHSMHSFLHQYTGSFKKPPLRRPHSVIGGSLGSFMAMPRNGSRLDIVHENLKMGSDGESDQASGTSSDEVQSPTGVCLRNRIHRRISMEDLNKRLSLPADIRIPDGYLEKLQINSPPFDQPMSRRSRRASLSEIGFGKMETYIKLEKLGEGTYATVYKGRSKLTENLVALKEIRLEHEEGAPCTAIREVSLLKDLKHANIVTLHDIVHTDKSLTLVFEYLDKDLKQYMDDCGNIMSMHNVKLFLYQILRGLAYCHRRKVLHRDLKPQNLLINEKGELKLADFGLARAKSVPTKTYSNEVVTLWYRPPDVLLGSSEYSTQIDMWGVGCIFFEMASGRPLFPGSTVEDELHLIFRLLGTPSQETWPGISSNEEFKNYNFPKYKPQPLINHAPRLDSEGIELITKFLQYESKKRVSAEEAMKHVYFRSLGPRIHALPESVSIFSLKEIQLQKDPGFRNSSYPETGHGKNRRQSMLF

[6] = biological target: T1, Serine/threonine-protein kinase/endoribonuclease IRE1; assay: Inhibition of tunicamycin-induced GFP-fused IRE1alpha (unknown origin) oligomerization expressed in HEK293 cells assessed as reduction in fluorescent foci formation after 5 hrs by fluorescence based assay; type: cell-based
[7] = biological target: T1, Serine/threonine-protein kinase/endoribonuclease IRE1; assay: Inhibition of thapsigargin-induced IRE1alpha (unknown origin) expressed in HEK293 cells assessed as reduction in IRE1alpha-dependent splicing of XBP1u-luciferase mRNA by luciferase reporter gene assay; type: cell-based
[8] = tested on: HEK293; assay: cells; details: Homo sapiens
Description: Cytotoxicity against HEK293 cells co-expressing XBP1u-mRNA by luciferase reporter gene assay

[9] = Distribution coefficient, log D of the compound at pH 7.4; type: physicochemical; details: octanol/water
[10] = physchem; details: buffer
Description: Aqueous kinetic solubility of the compound

[11] = biological target: Dual specificity protein kinase CLK2 (Homo sapiens) (UniProt P49760); assay: Inhibition of recombinant human GST-tagged CLK2 expressed in baculovirus expression system at 1 uM by kinomescan assay relative to control
Dual specificity protein kinase CLK2 (Homo sapiens), sequence (P49760 whole entry, looked up): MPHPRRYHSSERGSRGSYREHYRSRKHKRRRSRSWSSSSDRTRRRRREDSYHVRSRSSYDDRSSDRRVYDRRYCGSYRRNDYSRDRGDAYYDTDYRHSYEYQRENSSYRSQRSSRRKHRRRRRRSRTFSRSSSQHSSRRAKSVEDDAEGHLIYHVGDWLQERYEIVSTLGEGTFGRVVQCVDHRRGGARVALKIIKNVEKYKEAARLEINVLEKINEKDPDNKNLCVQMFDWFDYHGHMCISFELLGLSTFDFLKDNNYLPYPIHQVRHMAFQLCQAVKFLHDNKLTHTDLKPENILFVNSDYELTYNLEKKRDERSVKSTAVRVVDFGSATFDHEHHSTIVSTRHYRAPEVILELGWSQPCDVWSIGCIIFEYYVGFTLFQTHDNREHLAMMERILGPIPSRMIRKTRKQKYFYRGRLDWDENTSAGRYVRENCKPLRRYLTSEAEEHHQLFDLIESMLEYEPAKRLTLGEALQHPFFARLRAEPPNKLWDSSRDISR

[12] = biological target: Dual specificity protein kinase CLK1 (Homo sapiens) (UniProt P49759); assay: Inhibition of recombinant human GST-tagged CLK1 expressed in Escherichia coli at 1 uM by kinomescan assay relative to control
[13] = biological target: Dual specificity protein kinase CLK4 (Homo sapiens) (UniProt Q9HAZ1); assay: Inhibition of recombinant full length human GST-tagged CLK4 expressed in baculovirus expression system at 1 uM by kinomescan assay relative to control
Dual specificity protein kinase CLK4 (Homo sapiens), sequence (Q9HAZ1 whole entry, looked up): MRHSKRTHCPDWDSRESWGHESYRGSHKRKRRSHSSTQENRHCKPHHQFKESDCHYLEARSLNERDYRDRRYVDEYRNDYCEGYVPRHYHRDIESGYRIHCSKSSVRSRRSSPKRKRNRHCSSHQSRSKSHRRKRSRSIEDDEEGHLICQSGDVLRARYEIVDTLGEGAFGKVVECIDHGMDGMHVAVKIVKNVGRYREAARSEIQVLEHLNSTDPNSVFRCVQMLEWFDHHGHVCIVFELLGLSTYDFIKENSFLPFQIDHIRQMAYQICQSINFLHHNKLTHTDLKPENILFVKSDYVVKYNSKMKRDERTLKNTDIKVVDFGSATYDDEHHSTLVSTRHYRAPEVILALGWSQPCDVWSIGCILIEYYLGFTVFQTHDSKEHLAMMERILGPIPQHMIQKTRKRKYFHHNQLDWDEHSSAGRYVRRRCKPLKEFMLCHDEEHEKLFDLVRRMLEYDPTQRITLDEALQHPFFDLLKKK

[14] = biological target: Dual specificity tyrosine-phosphorylation-regulated kinase 1A (Homo sapiens) (UniProt Q13627); assay: Inhibition of recombinant full length human GST-tagged DYRK1A expressed in baculovirus expression system at 1 uM by kinomescan assay relative to control
[15] = biological target: Dual specificity tyrosine-phosphorylation-regulated kinase 1B (Homo sapiens) (UniProt Q9Y463); assay: Inhibition of recombinant full length human GST-tagged DYRK1B expressed in baculovirus expression system at 1 uM by kinomescan assay relative to control
Dual specificity tyrosine-phosphorylation-regulated kinase 1B (Homo sapiens), sequence (Q9Y463 whole entry, looked up): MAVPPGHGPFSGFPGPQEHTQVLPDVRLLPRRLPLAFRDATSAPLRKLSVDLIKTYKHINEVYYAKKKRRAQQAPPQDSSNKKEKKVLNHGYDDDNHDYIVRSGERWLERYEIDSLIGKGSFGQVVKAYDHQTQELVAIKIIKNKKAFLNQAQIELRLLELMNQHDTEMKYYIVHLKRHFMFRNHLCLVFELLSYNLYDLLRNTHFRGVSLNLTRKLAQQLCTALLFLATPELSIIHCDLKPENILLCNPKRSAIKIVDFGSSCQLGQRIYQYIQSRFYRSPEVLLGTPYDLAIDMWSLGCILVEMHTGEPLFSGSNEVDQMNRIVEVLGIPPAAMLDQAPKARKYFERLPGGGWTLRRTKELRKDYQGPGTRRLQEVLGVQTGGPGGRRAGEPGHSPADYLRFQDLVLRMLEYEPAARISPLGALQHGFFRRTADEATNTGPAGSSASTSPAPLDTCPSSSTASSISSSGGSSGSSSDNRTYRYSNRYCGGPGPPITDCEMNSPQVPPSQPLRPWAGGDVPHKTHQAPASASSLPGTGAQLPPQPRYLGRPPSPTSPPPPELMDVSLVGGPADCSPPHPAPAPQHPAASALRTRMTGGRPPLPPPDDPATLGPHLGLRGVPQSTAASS

[16] = biological target: Homeodomain-interacting protein kinase 4 (Homo sapiens) (UniProt Q8NE63); assay: Inhibition of recombinant human His-tagged HIPK4 expressed in baculovirus expression system at 1 uM by kinomescan assay relative to control
Homeodomain-interacting protein kinase 4 (Homo sapiens), sequence (Q8NE63 whole entry): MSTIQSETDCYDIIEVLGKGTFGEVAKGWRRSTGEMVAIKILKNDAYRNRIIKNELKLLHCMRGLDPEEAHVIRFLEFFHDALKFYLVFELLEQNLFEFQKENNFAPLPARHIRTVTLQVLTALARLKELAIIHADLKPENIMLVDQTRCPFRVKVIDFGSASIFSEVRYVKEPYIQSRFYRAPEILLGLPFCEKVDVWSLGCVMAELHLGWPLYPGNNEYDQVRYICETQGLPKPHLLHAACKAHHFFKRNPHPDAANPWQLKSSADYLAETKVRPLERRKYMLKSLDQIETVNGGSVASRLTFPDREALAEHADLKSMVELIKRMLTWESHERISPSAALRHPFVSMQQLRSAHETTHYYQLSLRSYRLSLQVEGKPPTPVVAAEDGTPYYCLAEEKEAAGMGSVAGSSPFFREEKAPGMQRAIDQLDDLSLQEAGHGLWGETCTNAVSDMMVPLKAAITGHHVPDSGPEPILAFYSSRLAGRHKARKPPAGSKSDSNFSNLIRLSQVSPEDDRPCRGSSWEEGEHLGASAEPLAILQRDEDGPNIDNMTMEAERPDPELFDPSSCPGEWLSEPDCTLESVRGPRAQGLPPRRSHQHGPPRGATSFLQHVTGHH

[17] = biological target: Receptor-type tyrosine-protein kinase FLT3 (Homo sapiens) (UniProt P36888); assay: Inhibition of recombinant human His-tagged FLT3 expressed in baculovirus expression system at 1 uM by kinomescan assay relative to control
[18] = tested on: Receptor-type tyrosine-protein kinase FLT3 (Homo sapiens), P36888 [UNDEFINED MUTATION]; assay: Inhibition of recombinant human His-tagged FLT3 ITD mutant expressed in baculovirus expression system at 1 uM by kinomescan assay relative to control
[19] = tested on: Receptor-type tyrosine-protein kinase FLT3 (Homo sapiens), P36888 [N841I]; assay: Inhibition of recombinant human His-tagged FLT3 […] mutant expressed in baculovirus expression system at 1 uM by kinomescan assay relative to control
[20] = biological target: Mast/stem cell growth factor receptor Kit (Homo sapiens) (UniProt P10721); assay: Inhibition of recombinant human His-tagged KIT expressed in baculovirus expression system at 1 uM by kinomescan assay relative to control
Mast/stem cell growth factor receptor Kit (Homo sapiens), sequence (P10721 whole entry): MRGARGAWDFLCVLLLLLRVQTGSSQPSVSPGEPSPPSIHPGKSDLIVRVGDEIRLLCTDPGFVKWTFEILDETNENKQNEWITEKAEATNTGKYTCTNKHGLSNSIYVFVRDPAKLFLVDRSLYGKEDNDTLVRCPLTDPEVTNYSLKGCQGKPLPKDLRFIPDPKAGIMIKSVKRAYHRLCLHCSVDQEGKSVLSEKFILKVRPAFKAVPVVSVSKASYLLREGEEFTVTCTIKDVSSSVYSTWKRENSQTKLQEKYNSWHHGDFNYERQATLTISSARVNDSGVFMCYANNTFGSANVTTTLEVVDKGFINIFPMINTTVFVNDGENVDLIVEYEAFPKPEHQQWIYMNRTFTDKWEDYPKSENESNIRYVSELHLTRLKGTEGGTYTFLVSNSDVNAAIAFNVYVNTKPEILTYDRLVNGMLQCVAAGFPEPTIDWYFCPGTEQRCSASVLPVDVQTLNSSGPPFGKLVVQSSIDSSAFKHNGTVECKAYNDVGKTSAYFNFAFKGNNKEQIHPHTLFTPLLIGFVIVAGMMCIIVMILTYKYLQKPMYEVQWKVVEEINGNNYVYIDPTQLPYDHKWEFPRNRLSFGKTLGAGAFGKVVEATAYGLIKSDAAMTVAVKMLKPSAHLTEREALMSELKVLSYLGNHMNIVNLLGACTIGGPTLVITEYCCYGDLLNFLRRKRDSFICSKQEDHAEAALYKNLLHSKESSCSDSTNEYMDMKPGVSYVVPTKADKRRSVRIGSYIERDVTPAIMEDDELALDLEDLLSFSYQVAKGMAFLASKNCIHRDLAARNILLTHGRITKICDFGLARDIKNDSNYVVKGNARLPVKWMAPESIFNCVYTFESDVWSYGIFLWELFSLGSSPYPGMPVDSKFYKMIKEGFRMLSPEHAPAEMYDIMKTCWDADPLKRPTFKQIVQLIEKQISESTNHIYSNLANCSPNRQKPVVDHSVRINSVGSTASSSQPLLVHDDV

[21] = tested on: Mast/stem cell growth factor receptor Kit (Homo sapiens), P10721 [L576P]; assay: Inhibition of recombinant human His-tagged KIT L576P mutant expressed in baculovirus expression system at 1 uM by kinomescan assay relative to control
Mast/stem cell growth factor receptor Kit (Homo sapiens), P10721 [L576P], sequence (P10721 whole entry L576P): as the sequence (P10721 whole entry) above, with L576P counted along it

[22] = tested on: Mast/stem cell growth factor receptor Kit (Homo sapiens), P10721 [V559D]; assay: Inhibition of recombinant human His-tagged KIT V559D mutant expressed in baculovirus expression system at 1 uM by kinomescan assay relative to control
Mast/stem cell growth factor receptor Kit (Homo sapiens), P10721 [V559D], sequence (P10721 whole entry V559D): as the sequence (P10721 whole entry) above, with V559D counted along it

[23] = biological target: Platelet-derived growth factor receptor beta (Homo sapiens) (UniProt P09619); assay: Inhibition of recombinant human His-tagged PDGFRB expressed in baculovirus expression system at 1 uM by kinomescan assay relative to control
[24] = tested on: Receptor-type tyrosine-protein kinase FLT3 (Homo sapiens), P36888 [D835Y]; assay: Inhibition of recombinant human His-tagged FLT3 D835Y mutant expressed in baculovirus expression system at 1 uM by kinomescan assay relative to control
[25] = tested on: Receptor-type tyrosine-protein kinase FLT3 (Homo sapiens), P36888 [K663Q]; assay: Inhibition of recombinant human His-tagged FLT3 K663Q mutant expressed in baculovirus expression system at 1 uM by kinomescan assay relative to control

T1 sequence (O75460 whole entry, the tested form may be a part): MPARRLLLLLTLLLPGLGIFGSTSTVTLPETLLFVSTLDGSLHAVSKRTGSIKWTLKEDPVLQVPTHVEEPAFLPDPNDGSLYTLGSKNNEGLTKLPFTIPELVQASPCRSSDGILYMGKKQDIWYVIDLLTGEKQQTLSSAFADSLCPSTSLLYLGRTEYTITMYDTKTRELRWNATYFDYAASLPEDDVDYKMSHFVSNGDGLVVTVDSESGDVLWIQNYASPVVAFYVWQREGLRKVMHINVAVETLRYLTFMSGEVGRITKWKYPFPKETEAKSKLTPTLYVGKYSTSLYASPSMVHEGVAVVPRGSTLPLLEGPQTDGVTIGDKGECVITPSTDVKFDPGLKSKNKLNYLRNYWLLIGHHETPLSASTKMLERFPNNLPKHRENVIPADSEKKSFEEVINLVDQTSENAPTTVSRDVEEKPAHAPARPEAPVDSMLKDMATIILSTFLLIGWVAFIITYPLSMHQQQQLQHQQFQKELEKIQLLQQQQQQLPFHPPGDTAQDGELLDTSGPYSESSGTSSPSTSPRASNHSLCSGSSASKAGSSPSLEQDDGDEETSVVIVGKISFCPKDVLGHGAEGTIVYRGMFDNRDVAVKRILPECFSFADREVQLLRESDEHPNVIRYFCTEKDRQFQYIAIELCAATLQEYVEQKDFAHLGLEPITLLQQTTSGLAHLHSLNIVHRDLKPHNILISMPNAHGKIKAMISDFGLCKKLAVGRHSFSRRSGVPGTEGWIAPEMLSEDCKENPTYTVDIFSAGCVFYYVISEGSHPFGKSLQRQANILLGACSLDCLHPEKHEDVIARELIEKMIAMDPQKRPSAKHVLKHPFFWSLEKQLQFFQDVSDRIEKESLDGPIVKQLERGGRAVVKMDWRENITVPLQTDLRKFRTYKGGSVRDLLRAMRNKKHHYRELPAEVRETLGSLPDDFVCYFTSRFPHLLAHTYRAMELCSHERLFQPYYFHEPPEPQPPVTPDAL

In the case of CN1CCC(CNc2cc(Cl)nn3c(-c4cc5nc(Nc6ccccc6)[nH]c5cc4F)cnc23)CC1, the pIC50 [1] was 6.80, the pIC50 [2] was 6.57 and the pIC50 [3] was 7.10. It also gave a pIC50 [4] of 6.15, an inhibition [5] of over 90% and a pIC50 [6] of 6.13. The pIC50 [7] was 5.79 to 6.17 and the pEC50 [8] was 5.05.

Compound CN1CCC(Nc2cc(Cl)nn3c(-c4ccc5[nH]c(Nc6ccccc6)nc5c4)cnc23)CC1 has a logD [9] of 2.7 and a solubility kinetic [10] of 41 µM (≈ 19.4 µg/mL).

Work on Clc1cc(NCC2CC2)c2ncc(-c3ccc4[nH]c(Nc5ccccc5)nc4c3)n2n1 yielded a logD [9] of 4.1 and a solubility kinetic [10] of 2.9 µM (≈ 1.25 µg/mL).

Clc1cc(NCC2CC2)c2ncc(-c3ccc4[nH]ncc4c3)n2n1 gave an inhibition [11] of over 90%, an inhibition [12] of over 90% and a pIC50 [1] of 6.52. For the same compound, the pIC50 [2] was 5.80, the pIC50 [3] was 5.05 and the pIC50 [4] was 5.38. For the same compound, the logD [9] was 3.4, the inhibition [13] was over 90% and the inhibition [14] was over 90%. It also gave an inhibition [15] of over 90%, an inhibition [16] of over 90% and an inhibition [17] of over 90%. For the same compound, the inhibition [18] was over 90%, the inhibition [19] was over 90% and the inhibition [20] was over 90%. The inhibition [21] was over 90%, the inhibition [22] was over 90% and the inhibition [23] was over 90%. It also gave an inhibition [24] of over 90%, an inhibition [25] of over 90% and an inhibition [5] of over 90%. The pEC50 [8] was under 4.31 and the solubility kinetic [10] was 0.8 µM (≈ 0.271 µg/mL).

CN(c1cc(Cl)nn2c(-c3ccc4[nH]ncc4c3)cnc12)[C@H]1CC[C@H](N)CC1 showed a pIC50 [1] of under 5.00 and a pIC50 [2] of under 5.00.

CN(c1ccccc1)c1nc2cc(-c3cnc4c(NCC5CC5)cc(Cl)nn34)ccc2[nH]1 gave a pIC50 [1] of under 5.00 and a pIC50 [2] of under 5.00.
